Experimental data: ChEMBL document CHEMBL4507291 (2021)

Experiments:
[1] = molecular target: T1, Tyrosine-protein kinase receptor TYRO3 (Homo sapiens) (UniProt Q06418)
T1 sequence (whole entry): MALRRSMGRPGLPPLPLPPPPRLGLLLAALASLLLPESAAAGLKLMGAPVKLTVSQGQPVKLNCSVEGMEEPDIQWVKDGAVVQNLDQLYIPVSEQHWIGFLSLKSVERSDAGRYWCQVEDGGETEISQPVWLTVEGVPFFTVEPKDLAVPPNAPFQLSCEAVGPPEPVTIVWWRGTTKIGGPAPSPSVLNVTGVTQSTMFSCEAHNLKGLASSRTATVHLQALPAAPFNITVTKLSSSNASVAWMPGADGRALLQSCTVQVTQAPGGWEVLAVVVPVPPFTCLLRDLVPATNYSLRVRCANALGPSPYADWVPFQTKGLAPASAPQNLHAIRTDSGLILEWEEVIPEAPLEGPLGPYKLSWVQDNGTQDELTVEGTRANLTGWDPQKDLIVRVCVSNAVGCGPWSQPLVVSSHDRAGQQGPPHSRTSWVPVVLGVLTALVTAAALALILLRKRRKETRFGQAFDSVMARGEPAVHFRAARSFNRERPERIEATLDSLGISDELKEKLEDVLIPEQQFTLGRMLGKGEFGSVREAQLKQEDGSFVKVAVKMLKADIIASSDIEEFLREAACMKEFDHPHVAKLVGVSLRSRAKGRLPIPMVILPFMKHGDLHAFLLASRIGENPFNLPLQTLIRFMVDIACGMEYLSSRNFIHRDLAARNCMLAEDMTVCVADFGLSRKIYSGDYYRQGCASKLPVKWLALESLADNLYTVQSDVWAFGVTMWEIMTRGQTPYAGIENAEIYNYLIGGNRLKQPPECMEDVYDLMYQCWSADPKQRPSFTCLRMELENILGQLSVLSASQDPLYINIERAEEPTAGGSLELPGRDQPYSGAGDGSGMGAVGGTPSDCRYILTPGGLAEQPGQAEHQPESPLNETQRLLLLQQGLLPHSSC

[2] = molecular target: T2, Tyrosine-protein kinase ITK/TSK (Homo sapiens) (UniProt Q08881)
T2 sequence (whole entry): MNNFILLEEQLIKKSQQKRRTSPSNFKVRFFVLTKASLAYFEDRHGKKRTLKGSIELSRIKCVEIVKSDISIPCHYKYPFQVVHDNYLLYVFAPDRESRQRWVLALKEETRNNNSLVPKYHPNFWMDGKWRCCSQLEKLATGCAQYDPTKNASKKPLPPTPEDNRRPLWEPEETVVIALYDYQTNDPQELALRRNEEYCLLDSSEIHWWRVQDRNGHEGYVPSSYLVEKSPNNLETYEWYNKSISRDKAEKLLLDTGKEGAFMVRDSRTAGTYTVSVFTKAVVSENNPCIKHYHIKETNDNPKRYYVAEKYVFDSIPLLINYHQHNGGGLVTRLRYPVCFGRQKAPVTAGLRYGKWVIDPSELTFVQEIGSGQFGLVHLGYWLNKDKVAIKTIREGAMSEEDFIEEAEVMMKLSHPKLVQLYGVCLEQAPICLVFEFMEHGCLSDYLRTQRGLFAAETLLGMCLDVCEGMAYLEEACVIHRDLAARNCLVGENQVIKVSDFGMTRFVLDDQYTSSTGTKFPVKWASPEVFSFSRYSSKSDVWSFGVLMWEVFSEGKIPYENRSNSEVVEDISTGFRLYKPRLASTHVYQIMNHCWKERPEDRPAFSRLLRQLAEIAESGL

[3] = molecular target: T3, Tyrosine-protein kinase TXK (Homo sapiens) (UniProt P42681)
T3 sequence (whole entry): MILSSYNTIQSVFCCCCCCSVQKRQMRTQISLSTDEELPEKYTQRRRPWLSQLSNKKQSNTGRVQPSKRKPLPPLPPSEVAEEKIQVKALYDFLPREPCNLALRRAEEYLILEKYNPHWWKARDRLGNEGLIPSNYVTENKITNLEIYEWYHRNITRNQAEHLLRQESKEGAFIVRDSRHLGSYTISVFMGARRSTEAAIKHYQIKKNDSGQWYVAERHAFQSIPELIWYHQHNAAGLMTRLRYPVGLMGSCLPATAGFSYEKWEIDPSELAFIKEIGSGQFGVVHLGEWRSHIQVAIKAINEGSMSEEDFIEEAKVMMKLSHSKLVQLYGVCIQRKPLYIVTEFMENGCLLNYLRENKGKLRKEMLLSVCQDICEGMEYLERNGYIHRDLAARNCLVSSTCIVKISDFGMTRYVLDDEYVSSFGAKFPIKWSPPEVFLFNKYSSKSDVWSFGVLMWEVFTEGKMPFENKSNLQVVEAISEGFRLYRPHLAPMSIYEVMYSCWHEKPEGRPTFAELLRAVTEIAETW

[4] = molecular target: T4, Dual specificity protein kinase TTK (Homo sapiens) (UniProt P33981)
T4 sequence (whole entry): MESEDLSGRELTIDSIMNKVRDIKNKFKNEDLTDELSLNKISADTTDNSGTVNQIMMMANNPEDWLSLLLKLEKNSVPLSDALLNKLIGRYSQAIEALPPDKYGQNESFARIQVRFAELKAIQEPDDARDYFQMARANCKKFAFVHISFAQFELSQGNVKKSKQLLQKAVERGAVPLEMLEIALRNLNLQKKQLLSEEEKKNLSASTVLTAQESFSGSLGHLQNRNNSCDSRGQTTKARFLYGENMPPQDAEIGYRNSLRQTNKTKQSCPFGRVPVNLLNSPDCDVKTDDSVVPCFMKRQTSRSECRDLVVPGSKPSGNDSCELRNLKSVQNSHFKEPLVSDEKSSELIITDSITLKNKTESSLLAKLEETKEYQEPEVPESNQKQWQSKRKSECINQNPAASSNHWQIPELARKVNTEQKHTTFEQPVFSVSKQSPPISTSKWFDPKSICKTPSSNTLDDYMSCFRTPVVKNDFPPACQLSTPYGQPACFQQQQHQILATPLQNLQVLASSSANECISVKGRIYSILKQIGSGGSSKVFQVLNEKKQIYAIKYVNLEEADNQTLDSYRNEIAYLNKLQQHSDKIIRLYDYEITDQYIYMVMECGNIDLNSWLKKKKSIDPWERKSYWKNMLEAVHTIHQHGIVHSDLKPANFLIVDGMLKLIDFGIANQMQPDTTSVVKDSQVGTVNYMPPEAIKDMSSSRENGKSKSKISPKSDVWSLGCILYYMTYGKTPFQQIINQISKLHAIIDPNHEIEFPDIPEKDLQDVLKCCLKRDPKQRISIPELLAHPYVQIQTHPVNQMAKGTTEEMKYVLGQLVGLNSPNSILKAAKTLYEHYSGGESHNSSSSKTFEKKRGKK

[5] = system: Epidermal growth factor receptor (Homo sapiens), P00533 [G719C]
[6] = molecular target: Ribosomal protein S6 kinase alpha-6 (Homo sapiens) (UniProt Q9UK32)
[7] = Compound concentration 1000.0 nM
[8] = Compound concentration 100.0 nM

Measured: residual activity

Sequence of Ribosomal protein S6 kinase alpha-6 (Homo sapiens) (Q9UK32 whole entry): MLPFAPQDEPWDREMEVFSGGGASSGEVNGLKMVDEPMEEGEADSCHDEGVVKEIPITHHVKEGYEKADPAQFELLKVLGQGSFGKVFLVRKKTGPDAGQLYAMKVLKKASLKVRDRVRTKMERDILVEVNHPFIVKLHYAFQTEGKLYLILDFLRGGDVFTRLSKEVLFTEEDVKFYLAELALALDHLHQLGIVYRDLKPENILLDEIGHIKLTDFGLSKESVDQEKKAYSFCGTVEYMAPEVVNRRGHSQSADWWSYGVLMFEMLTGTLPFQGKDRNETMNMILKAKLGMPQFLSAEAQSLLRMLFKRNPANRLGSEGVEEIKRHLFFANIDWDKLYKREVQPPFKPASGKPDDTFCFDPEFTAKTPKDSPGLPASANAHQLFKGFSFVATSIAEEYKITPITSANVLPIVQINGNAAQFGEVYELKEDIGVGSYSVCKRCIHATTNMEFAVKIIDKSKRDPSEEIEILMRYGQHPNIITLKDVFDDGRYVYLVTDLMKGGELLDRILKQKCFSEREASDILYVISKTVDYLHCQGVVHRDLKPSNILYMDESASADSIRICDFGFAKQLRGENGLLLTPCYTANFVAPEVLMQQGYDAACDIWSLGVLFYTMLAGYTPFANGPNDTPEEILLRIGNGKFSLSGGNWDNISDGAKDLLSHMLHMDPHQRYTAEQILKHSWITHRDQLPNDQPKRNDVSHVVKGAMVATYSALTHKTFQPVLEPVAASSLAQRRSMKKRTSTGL

C[C@@H]1CN(c2cc(-c3nn(C)c4ccc(OC5(C)CC5)cc34)ncn2)C[C@H](C)O1 [MLi-2-NC]
inactive: [1]; [7] 93% | [2]; [7] 96% | [3]; [7] 100% | [4]; [7] 100% | [5]; [7] 76% | [6]; [7] 78%

C[C@@H]1CN(c2cc(-c3n[nH]c4ccc(OC5(C)CC5)cc34)ncn2)C[C@H](C)O1 [MLi-2]
inactive: [1]; [8] 100% | [2]; [8] 87% | [3]; [8] 80% | [4]; [8] 74% | [5]; [8] 63% | [6]; [8] 77%
